Experimental data reported in the supplement of paper PMC11061612.

Key:
[1] = system: NCI-H835 (Other Solid Carcinomas); assay: Bliss excess, mean over the matrix (fraction); higher = more synergy
How it was run: (§1)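 Cell lines grown in DMEM/F12 or RPMI with 10% FBS were plated in 1536-well plates and held 24 hours at 37°C, 5% CO2 before 72 hours of exposure to two-drug dose matrices, with DMSO typically at 0.2%. CellTiter-Glo 2.0 luminescence gave viability, which was converted to inhibition. Vehicle wells were set to 0 and blank wells to 1. Combination Emax is the second-highest inhibition in the matrix, and Bliss excess is the observed combination effect minus the expected EA + EB − EA·EB, where EA and EB are the single-agent effects.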

[2] = system: NCI-H2009 (Lung Adenocarcinoma); assay: as above
How it was run: as §1

[3] = system: SK-MEL-24 (Melanoma); assay: as above
How it was run: as §1

[4] = system: COR-L105 (Lung Adenocarcinoma); assay: as above
How it was run: as §1

[5] = system: CAL-85-1 (Breast Carcinoma); assay: as above
How it was run: as §1

[6] = system: NTERA-2-cl-D1 (Other Solid Carcinomas); assay: as above
How it was run: as §1

[7] = system: SW1463 (Colorectal Carcinoma); assay: as above
How it was run: as §1

[8] = system: NCI-H2452 (Mesothelioma); assay: as above
How it was run: as §1

[9] = system: L-363 (Plasma Cell Myeloma); assay: as above
How it was run: as §1

[10] = system: C32 (Melanoma); assay: as above
How it was run: as §1

[11] = system: BC-1 (B-Cell Non-Hodgkin's Lymphoma); assay: as above
How it was run: as §1

[12] = system: NCI-H2023 (Non-Small Cell Lung Carcinoma); assay: as above
How it was run: as §1

[13] = system: NCI-H1648 (Lung Adenocarcinoma); assay: as above
How it was run: as §1

[14] = system: RPMI-8402 (T-Lymphoblastic Leukemia); assay: as above
How it was run: as §1

[15] = system: MRK-nu-1 (Breast Carcinoma); assay: as above
How it was run: as §1

[16] = system: MDA-MB-175-VII (Breast Carcinoma); assay: as above
How it was run: as §1

[17] = system: NCI-H1435 (Non-Small Cell Lung Carcinoma); assay: as above
How it was run: as §1

[18] = system: GCIY (Gastric Carcinoma); assay: as above
How it was run: as §1

[19] = system: OVKATE (Ovarian Carcinoma); assay: as above
How it was run: as §1

[20] = system: KNS-62 (Squamous Cell Lung Carcinoma); assay: as above
How it was run: as §1

[21] = system: A375 (Melanoma); assay: as above
How it was run: as §1

[22] = system: MG-63 (Osteosarcoma); assay: as above
How it was run: as §1

[23] = system: SBC-3 (Small Cell Lung Carcinoma); assay: as above
How it was run: as §1

[24] = system: NCI-H835 (Other Solid Carcinomas); assay: combination Emax (second highest fraction inhibited in the dose matrix, 72 h); higher = more inhibition; extreme values may be limits of the assay
How it was run: as §1

[25] = system: NCI-H2009 (Lung Adenocarcinoma); assay: as above
How it was run: as §1

[26] = system: SK-MEL-24 (Melanoma); assay: as above
How it was run: as §1

[27] = system: COR-L105 (Lung Adenocarcinoma); assay: as above
How it was run: as §1

[28] = system: CAL-85-1 (Breast Carcinoma); assay: as above
How it was run: as §1

[29] = system: NTERA-2-cl-D1 (Other Solid Carcinomas); assay: as above
How it was run: as §1

[30] = system: SW1463 (Colorectal Carcinoma); assay: as above
How it was run: as §1

[31] = system: NCI-H2452 (Mesothelioma); assay: as above
How it was run: as §1

[32] = system: L-363 (Plasma Cell Myeloma); assay: as above
How it was run: as §1

[33] = system: C32 (Melanoma); assay: as above
How it was run: as §1

[34] = system: BC-1 (B-Cell Non-Hodgkin's Lymphoma); assay: as above
How it was run: as §1

[35] = system: NCI-H2023 (Non-Small Cell Lung Carcinoma); assay: as above
How it was run: as §1

[36] = system: NCI-H1648 (Lung Adenocarcinoma); assay: as above
How it was run: as §1

[37] = system: RPMI-8402 (T-Lymphoblastic Leukemia); assay: as above
How it was run: as §1

[38] = system: MRK-nu-1 (Breast Carcinoma); assay: as above
How it was run: as §1

[39] = system: MDA-MB-175-VII (Breast Carcinoma); assay: as above
How it was run: as §1

[40] = system: NCI-H1435 (Non-Small Cell Lung Carcinoma); assay: as above
How it was run: as §1

[41] = system: GCIY (Gastric Carcinoma); assay: as above
How it was run: as §1

[42] = system: OVKATE (Ovarian Carcinoma); assay: as above
How it was run: as §1

[43] = system: KNS-62 (Squamous Cell Lung Carcinoma); assay: as above
How it was run: as §1

[44] = system: A375 (Melanoma); assay: as above
How it was run: as §1

[45] = system: MG-63 (Osteosarcoma); assay: as above
How it was run: as §1

[46] = system: SBC-3 (Small Cell Lung Carcinoma); assay: as above
How it was run: as §1
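Wherever Bliss excess, mean over the matrix is given: after 72 h of two-drug dosing.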

`C[C@@H](Oc1cc(-c2cnn(C3CCNCC3)c2)cnc1N)c1c(Cl)ccc(F)c1Cl` [Crizotinib] + CC1=C(C(=CC=C1)Cl)NC(=O)C2=CN=C(S2)NC3=CC(=NC(=N3)C)N4CCN(CC4)CCO [Dasatinib] (first compound max 10 µM, 7x7, partner max 2 µM) gave a Bliss excess [1] of 0.0045, a Bliss excess [2] of 0.0662 and a Bliss excess [3] of -0.0523. The Bliss excess [4] was -0.0313, the Bliss excess [5] was 0.001 and the Bliss excess [6] was 0.0073. For the same molecule, the Bliss excess [7] was -0.0926, the Bliss excess [8] was 0.0069 and the Bliss excess [9] was 0.004. For the same molecule, the Bliss excess [10] was -0.0461, the Bliss excess [11] was 0.0312 and the Bliss excess [12] was -0.012. The Bliss excess [13] was 0.0331, the Bliss excess [14] was 0.0006 and the Bliss excess [15] was -0.0711. The Bliss excess [16] was -0.0527, the Bliss excess [17] was 0.0039 and the Bliss excess [18] was 0.0537. The Bliss excess [19] was 0.06, the Bliss excess [20] was -0.0258 and the Bliss excess [21] was -0.0256. For the same molecule, the Bliss excess [22] was 0.0498, the Bliss excess [23] was 0.0493 and the “combination Emax” value [24] was 0.854. The “combination Emax” value [25] was 0.88, the “combination Emax” value [26] was 0.871 and the “combination Emax” value [27] was 0.481. The “combination Emax” value [28] was 0.778, the “combination Emax” value [29] was 0.956 and the “combination Emax” value [30] was 0.133. For the same molecule, the “combination Emax” value [31] was 0.744, the “combination Emax” value [32] was 0.632 and the “combination Emax” value [33] was 0.425. For the same molecule, the “combination Emax” value [34] was 0.94, the “combination Emax” value [35] was 0.607 and the “combination Emax” value [36] was 0.908. For the same molecule, the “combination Emax” value [37] was 0.971, the “combination Emax” value [38] was 0.218 and the “combination Emax” value [39] was 0.0779. The “combination Emax” value [40] was 0.255, the “combination Emax” value [41] was 0.863 and the “combination Emax” value [42] was 0.572. The “combination Emax” value [43] was 0.302, the “combination Emax” value [44] was 0.502 and the “combination Emax” value [45] was 0.949. For the same molecule, the “combination Emax” value [46] was 0.957.

`CN(CCO)CC[C@H](CSc1ccccc1)Nc1ccc(S(=O)(=O)NC(=O)c2ccc(N3CCC([C@@H](O)c4ccccc4-c4ccc(Cl)cc4)CC3)cc2)cc1S(=O)(=O)C(F)(F)F` [AZD4320] + CC(=O)O[C@H]1C(=O)[C@@]2(C)[C@H]([C@H](OC(=O)c3ccccc3)[C@]3(O)C[C@H](OC(=O)[C@H](O)[C@@H](NC(=O)c4ccccc4)c4ccccc4)C(C)=C1C3(C)C)[C@]1(OC(C)=O)CO[C@@H]1C[C@@H]2O [Paclitaxel] (first compound max 1 µM, 7x7, partner max 3 µM) gave a Bliss excess [1] of 0.199, a Bliss excess [2] of 0.0889 and a Bliss excess [3] of 0.0574. For the same molecule, the Bliss excess [4] was 0.0195, the Bliss excess [5] was 0.0773 and the Bliss excess [6] was 0.0025. For the same molecule, the Bliss excess [7] was 0.0662, the Bliss excess [8] was 0.117 and the Bliss excess [9] was -0.0131. For the same molecule, the Bliss excess [10] was 0.107, the Bliss excess [11] was 0.0045 and the Bliss excess [12] was 0.0458. The Bliss excess [13] was -0.0009, the Bliss excess [14] was -0.0038 and the Bliss excess [15] was 0.0162. For the same molecule, the Bliss excess [16] was 0.107, the Bliss excess [17] was 0.167 and the Bliss excess [18] was 0.131. The Bliss excess [19] was 0.113, the Bliss excess [20] was 0.185 and the Bliss excess [21] was 0.0759. The Bliss excess [22] was 0.0471, the Bliss excess [23] was 0.0387 and the “combination Emax” value [24] was 1. For the same molecule, the “combination Emax” value [25] was 0.933, the “combination Emax” value [26] was 0.888 and the “combination Emax” value [27] was 0.695. The “combination Emax” value [28] was 0.884, the “combination Emax” value [29] was 0.754 and the “combination Emax” value [30] was 0.767. For the same molecule, the “combination Emax” value [31] was 0.983, the “combination Emax” value [32] was 1 and the “combination Emax” value [33] was 0.864. For the same molecule, the “combination Emax” value [34] was 1, the “combination Emax” value [35] was 0.776 and the “combination Emax” value [36] was 0.936. For the same molecule, the “combination Emax” value [37] was 1, the “combination Emax” value [38] was 1 and the “combination Emax” value [39] was 0.766. For the same molecule, the “combination Emax” value [40] was 0.929, the “combination Emax” value [41] was 0.952 and the “combination Emax” value [42] was 0.629. The “combination Emax” value [43] was 0.957, the “combination Emax” value [44] was 0.992 and the “combination Emax” value [45] was 1. For the same molecule, the “combination Emax” value [46] was 1.

`N#Cc1cnc(Nc2cc(NC[C@H]3CNCCO3)c(C(F)(F)F)cn2)cn1` [SRA737] + Nc1ccn([C@@H]2O[C@H](CO)[C@@H](O)C2(F)F)c(=O)n1 [Gemcitabine] (first compound max 10 µM, 7x7, partner max 0.3 µM) was tested, and the Bliss excess [1] was -0.0363, the Bliss excess [2] was 0.125 and the Bliss excess [3] was 0.0307. The Bliss excess [4] was -0.0009, the Bliss excess [5] was 0.0442 and the Bliss excess [6] was 0.0301. For the same molecule, the Bliss excess [7] was 0.0633, the Bliss excess [8] was 0.0892 and the Bliss excess [9] was 0.123. The Bliss excess [10] was -0.0986, the Bliss excess [11] was 0.0426 and the Bliss excess [12] was 0.0332. For the same molecule, the Bliss excess [13] was 0.0912, the Bliss excess [14] was 0.0312 and the Bliss excess [15] was 0.0214. For the same molecule, the Bliss excess [16] was -0.0041, the Bliss excess [17] was 0.0521 and the Bliss excess [18] was -0.0085. It also gave a Bliss excess [19] of 0.0092, a Bliss excess [20] of 0.0488 and a Bliss excess [21] of 0.0398. The Bliss excess [22] was 0.124, the Bliss excess [23] was 0.0064 and the “combination Emax” value [24] was 0.321. The “combination Emax” value [25] was 0.785, the “combination Emax” value [26] was 0.814 and the “combination Emax” value [27] was 0.485. The “combination Emax” value [28] was 0.743, the “combination Emax” value [29] was 0.54 and the “combination Emax” value [30] was 0.848. The “combination Emax” value [31] was 0.737, the “combination Emax” value [32] was 0.986 and the “combination Emax” value [33] was 0.724. The “combination Emax” value [34] was 0.979, the “combination Emax” value [35] was 0.708 and the “combination Emax” value [36] was 0.666. The “combination Emax” value [37] was 1, the “combination Emax” value [38] was 0.748 and the “combination Emax” value [39] was 0.519. For the same molecule, the “combination Emax” value [40] was 0.411, the “combination Emax” value [41] was 0.78 and the “combination Emax” value [42] was 0.27. The “combination Emax” value [43] was 0.608, the “combination Emax” value [44] was 0.972 and the “combination Emax” value [45] was 0.988. For the same molecule, the “combination Emax” value [46] was 0.97.
